target: Cholinesterase (Homo sapiens, UniProt P06276); assay: Inhibitory activity against butyrylcholinesterase (BChE) in human […]
Sequence (P06276 whole entry): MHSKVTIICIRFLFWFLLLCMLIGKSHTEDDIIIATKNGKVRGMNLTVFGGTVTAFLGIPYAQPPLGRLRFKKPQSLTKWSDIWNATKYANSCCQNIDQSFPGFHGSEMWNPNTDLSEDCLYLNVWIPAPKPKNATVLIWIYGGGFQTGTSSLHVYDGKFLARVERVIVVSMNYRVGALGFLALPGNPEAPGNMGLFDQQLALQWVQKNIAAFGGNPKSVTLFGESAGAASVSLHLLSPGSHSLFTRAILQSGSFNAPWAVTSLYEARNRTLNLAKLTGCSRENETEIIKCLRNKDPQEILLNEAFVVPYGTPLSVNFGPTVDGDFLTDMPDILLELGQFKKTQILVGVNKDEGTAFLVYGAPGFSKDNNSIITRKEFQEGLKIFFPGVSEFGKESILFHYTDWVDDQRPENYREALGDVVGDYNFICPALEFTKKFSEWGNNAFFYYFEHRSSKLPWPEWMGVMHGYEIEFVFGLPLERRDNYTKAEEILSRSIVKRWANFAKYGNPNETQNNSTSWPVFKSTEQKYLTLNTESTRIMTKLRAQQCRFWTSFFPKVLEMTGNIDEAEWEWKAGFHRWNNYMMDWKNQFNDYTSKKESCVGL

Point of comparison: CNC(=O)Oc1cccc2c1OC[C@@H]1CCN(C)[C@H]21 [(2S,6R)-3-methyl-8-oxa-3-azatricyclo[7.4.0.0^{2,6}]trideca-1(13),9,11-trien-10-yl N-methylcarbamate], IC50 0.054 µM. Against it:
- CN1CC[C@H]2COc3c(O)cccc3[C@H]21 — 15000-fold higher, 794 µM
- O=C(CCCCCCC(=O)NCCCCCCN1CC[C@H]2COc3ccccc3[C@H]21)NCCCCCCN1CC[C@H]2COc3ccccc3[C@H]21 — 17-fold higher, 0.912 µM
- CNC(=O)Oc1ccc2c(c1)[C@@H]1[C@@H](CCN1C)CO2 — 190-fold higher, 10.2 µM
- CNC(=O)Oc1ccc2c(c1)OC[C@@H]1CC[N+](C)(C)[C@H]21 — 55-fold higher, 2.95 µM
- CNC(=O)Oc1ccc2c(c1)OC[C@@H]1CCN(C)[C@H]21 [(3aR,9bS)-1-methyl-1,2,3,3a,4,9b-hexahydrochromeno[4,3-b]pyrrol-7-yl methylcarbamate] — 66-fold higher, 3.55 µM
